Marks after values point to notes of the source that are not given here.

The first assay has as its system pancreatic cancer cells PANC-1. Description: Tumor inhibition in nude mice bearing pancreatic cancer cells PANC-1. The following applies: Table 3; avg tumor volume 105 mm^3; 100 μl/mouse every 3 days x3; next day after last dose. It counts as in vivo. As to the method: (§1) They were injected intraperitoneally and intratumorally.
After anatomy, the tumor weight was measured and the tumor inhibition rate was calculated.
With `NCCCC[C@H](N)C(=O)O` [20% lysine, L-lysine], the “Tumor inhibition rate of intraperitoneal injection” value stood at 53% and the “Tumor inhibition rate of intratumoral injection” value is 1%.

The assay is the same for the next values; noted with them: Table 4; avg tumor volume 136 mm^3; intratumoral every 3 days x3, ≤150 μl; next day.
Regarding `N=C(N)NCCC[C@H](N)C(=O)O` [1% arginine, L-arginine], the Tumor inhibition rate turned out to be 17%.

For `N[C@@H](CCC(=O)N[C@@H](CS)C(=O)NCC(=O)O)C(=O)O` [1% glutathione, Reduced glutathione], the Tumor inhibition rate came out at 11%.

For the compound `N=C(N)NCCC[C@H](N)C(=O)O` [2% arginine, L-arginine], the Tumor inhibition rate stood at 15%.

In turn, `N[C@@H](CCC(=O)N[C@@H](CS)C(=O)NCC(=O)O)C(=O)O` [2% glutathione, Reduced glutathione] registered a Tumor inhibition rate of 13%.

The compound `N=C(N)NCCC[C@H](N)C(=O)O` [3% arginine, L-arginine] returned a Tumor inhibition rate of 19%.

For `N[C@@H](CCC(=O)N[C@@H](CS)C(=O)NCC(=O)O)C(=O)O` [3% glutathione, Reduced glutathione], the Tumor inhibition rate came to 12%.

Compound `N=C(N)NCCC[C@H](N)C(=O)O` [5% arginine, L-arginine] displayed a Tumor inhibition rate of 16%.

The compound `N[C@@H](CCC(=O)N[C@@H](CS)C(=O)NCC(=O)O)C(=O)O` [5% glutathione, Reduced glutathione] showed a Tumor inhibition rate of 32%.

On to `N=C(N)NCCC[C@H](N)C(=O)O` [7.5% arginine, L-arginine], for which the Tumor inhibition rate is on record as 21%.

Consider `N[C@@H](CCC(=O)N[C@@H](CS)C(=O)NCC(=O)O)C(=O)O` [7.5% glutathione, Reduced glutathione], for which the Tumor inhibition rate is 45%.

Regarding `N[C@@H](CCC(=O)N[C@@H](CS)C(=O)NCC(=O)O)C(=O)O` [12.5% glutathione, Reduced glutathione], the Tumor inhibition rate came to 66%.

Staying with this assay, now noted: Table 4; avg tumor volume 136 mm^3; intratumoral every 3 days x3, ≤150 μl; next day; hydrochloride.
In turn, `Cl.N[C@@H](CCC(=O)O)C(=O)O` [0.5% glutamic hydrochloride, L-glutamic hydrochloride] came in with a Tumor inhibition rate of 11%.

`Cl.N[C@@H](CCC(=O)O)C(=O)O` [0.15% glutamic hydrochloride, L-glutamic hydrochloride] came in with a Tumor inhibition rate of 16%.

In turn, `Cl.N[C@@H](CCC(=O)O)C(=O)O` [0.25% glutamic hydrochloride, L-glutamic hydrochloride] returned a Tumor inhibition rate of 13%.

`Cl.N[C@@H](CCC(=O)O)C(=O)O` [1% glutamic hydrochloride, L-glutamic hydrochloride] returned a Tumor inhibition rate of 18%.

`Cl.N[C@@H](CCC(=O)O)C(=O)O` [2% glutamic hydrochloride, L-glutamic hydrochloride] gave a Tumor inhibition rate of 49%.

For `Cl.N[C@@H](CCC(=O)O)C(=O)O` [5% glutamic hydrochloride, L-glutamic hydrochloride], the Tumor inhibition rate worked out at 76%.

The subject of a further assay is human liver cancer cells (HepG2). The assay can be described thus: Tumor weight and tumor inhibition in nude mice bearing HepG2. It counts as in vivo. As to conditions: Table 6; avg tumor volume 153 mm^3; ≤120 μl/mouse every 3 days x3; 5th day after last dose. As to the method: One of the core characteristics of tumors is heterogeneity. […] The corresponding negative control was normal saline.
as §1
The negative control group was given normal saline. The compositions of the study drug are as shown in the table below: 4 types and concentrations of amino acid based nutrient single drugs (X % amino acid based nutrients), 18 types and concentrations of ineffective absorption drugs (Y % ineffective absorption drugs), 24 compositions comprising various types and concentrations of amino acid based nutrients and ineffectively absorption drugs (X % amino acid based nutrients/Y % ineffectively absorption drugs).
The negative control was normal saline. The compositions of 16 study drugs, as shown in the table below, comprise: a 5-fluorouracil single drug of 4 varying concentrations (X % 5-fluorouracil), and an amino acid based nutrient with 5 varying concentrations (Y % amino acid based nutrient), 7 compositions consisting of 5-fluorouracil of varying concentrations and an amino acid based nutrient of varying concentrations (X % 5-fluorouracil/Y % amino acid based nutrient). […] The dose at each time was: 5-fluorouracil 50 mg/kg, glutathione ≤1 g/kg, and an injection volume was ≤150 μl/mouse.
The negative control was normal saline, the positive control was 1% 5-fluorouracil, and the study drug was 1% methylene blue/10% amino acid based nutrient composition (the type of the amino acid based nutrient is variable). The amino acid based nutrients in the compositions used in study groups 1-13 were: arginine, glycine, cysteine hydrochloride, valine, threonine, proline, histidine hydrochloride, phenylalanine, lysine, leucine, alanine, glutathione, serine, and the study drug used in the study group 14 was 1% methylene blue/5% arginine/5% glycine.
With `CN(C)c1ccc2nc3ccc(=[N+](C)C)cc-3sc2c1` [0.7% methylene blue, Methylene blue], the “Intratumoral injection Tumor inhibition rate” value was 13%, the “Intratumoral injection Tumor weight” value turned out to be 2.02 ± 0.31 g and the “Tumor inhibition rate of intraperitoneal injection” value is reported as 2%.

In the case of `CC(=O)O` [3.5% acetic acid, acetic acid], the “Intratumoral injection Tumor inhibition rate” value came out at 64%, the “Intratumoral injection Tumor weight” value is listed as 0.84 ± 0.23 g and the “Tumor inhibition rate of intraperitoneal injection” value amounted to 6%.

As for `CC/C=C\C/C=C\C/C=C\C/C=C\C/C=C\C/C=C\CCC(=O)O` [5% DHA, Docosahexaenoic acid (DHA)], the “Intratumoral injection Tumor inhibition rate” value is given as 27%, the “Intratumoral injection Tumor weight” value is 1.69 ± 0.33 g and the “Tumor inhibition rate of intraperitoneal injection” value stood at 4%.

The same assay, now with this note: Table 11; avg tumor volume 164 mm^3; intratumoral every 3 days x3, ≤150 μl; fifth day after last dose.
In the case of `Cl` [0.5% hydrochloric acid, hydrochloric acid], the Tumor inhibition rate result is “(53%)”.

Consider `Cl` [0.25% hydrochloric acid, hydrochloric acid], for which the Tumor inhibition rate result was “(31%)”.

Turning to `CN(C)c1ccc2nc3ccc(=[N+](C)C)cc-3sc2c1` [0.25% methylene blue, Methylene blue], the Tumor inhibition rate entry is given as “(11%)”.

As for `CN(C)c1ccc2nc3ccc(=[N+](C)C)cc-3sc2c1` [0.35% methylene blue, Methylene blue], the Tumor inhibition rate result is given as “(18%)”.

Take `CC(=O)O` [1% acetic acid, acetic acid]: the Tumor inhibition rate entry was “(26%)”.

Take `Cl` [1% hydrochloric acid, hydrochloric acid]: the Tumor inhibition rate result is reported as “(68%)”.

Regarding `CC(=O)O` [2% acetic acid, acetic acid], the Tumor inhibition rate entry is recorded as “(46%)”.

Regarding `Cl` [2% hydrochloric acid, hydrochloric acid], the Tumor inhibition rate entry was “(83%)”.

Turning to `N[C@@H](CCC(=O)N[C@@H](CS)C(=O)NCC(=O)O)C(=O)O` [2.5% glutathione, Reduced glutathione], the Tumor inhibition rate result was “(12%)*”.

`CC/C=C\C/C=C\C/C=C\C/C=C\C/C=C\C/C=C\CCC(=O)O` [3% DHA, Docosahexaenoic acid (DHA)]: the Tumor inhibition rate result was “(21%)”.

For `O=C1OC2(c3cc(I)c(O)c(I)c3Oc3c2cc(I)c(O)c3I)c2c(Cl)c(Cl)c(Cl)c(Cl)c21` [5% Bengal Red, Bengal Red], the Tumor inhibition rate result is “(46%)”.

As to `CC/C=C\C/C=C\C/C=C\C/C=C\C/C=C\C/C=C\CCC(=O)O` [5% DHA, Docosahexaenoic acid (DHA)], the Tumor inhibition rate result was “(28%)”.

Regarding `N[C@@H](CCC(=O)N[C@@H](CS)C(=O)NCC(=O)O)C(=O)O` [5% glutathione, Reduced glutathione], the Tumor inhibition rate result is given as “(31%)”.

`O=C1OC2(c3cc(I)c(O)c(I)c3Oc3c2cc(I)c(O)c3I)c2c(Cl)c(Cl)c(Cl)c(Cl)c21` [10% Bengal Red, Bengal Red]: the Tumor inhibition rate result is listed as “(63%)”.

As for `CC(=O)O` [20% acetic acid, acetic acid], the Tumor inhibition rate result is “(92%)**”.

Still in this assay, the particulars now being: Table 16; avg tumor volume 169 mm^3; intratumoral every 3 days x3, ≤150 μl/mouse; 5th day.
With `O=c1[nH]cc(F)c(=O)[nH]1` [0.5% 5-fluorouracil, 5-fluorouracil], the Tumor inhibition rate entry was “(59%)*”.

Consider `O=c1[nH]cc(F)c(=O)[nH]1` [0.75% 5-fluorouracil, 5-fluorouracil], for which the Tumor inhibition rate result is “(63%)”.

Turning to `O=c1[nH]cc(F)c(=O)[nH]1` [1.5% 5-fluorouracil, 5-fluorouracil], the Tumor inhibition rate result is “(69%)”.

Regarding `N[C@@H](CCC(=O)N[C@@H](CS)C(=O)NCC(=O)O)C(=O)O` [2.5% glutathione, Reduced glutathione], the Tumor inhibition rate entry was “(12%)”.

On to `N[C@@H](CCC(=O)N[C@@H](CS)C(=O)NCC(=O)O)C(=O)O` [5% glutathione, Reduced glutathione], for which the Tumor inhibition rate result is recorded as “(32%)”.

The subject of the next assay is breast cancer 4T1 cells. Description: Tumor weight and tumor inhibition in BALB/c mice bearing breast cancer 4T1 cells.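 Note: subcutaneous grafts in the right axilla, tumors excised and weighed after euthanasia, inhibition rate derived from group mean tumor weight versus the negative control group.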 The following applies: Table 10; avg tumor volume 336 mm^3; 150 μl/mouse every 3 days x3; 5th day after last dose.
Description: In the following examples, unless otherwise specified, animal tests of subcutaneous transplantation tumors were performed in accordance with test guidelines issued by a drug administration authority. […] The subcutaneous transplantation was carried out according to a conventional method for subcutaneous inoculation of tumor cells. […] Items to be observed, measured and analyzed in the experiments included general status, body weight, food intake, tumor volume, tumor weight, thymus weight, spleen weight, and the like.
The tumor growth inhibition rate (abbreviated as tumor inhibition rate in the present invention) is calculated through the following equation:
wherein TW is an average tumor weight of a study group; CW is an average tumor weight of a negative control group.
The effects of the co-use of drugs (including efficacy and safety) can theoretically be based on the judgment of q:
q=actual combined effect/theoretical expected effect of simple addition.
When q=1, the actual combined effect meets the theoretical expectation, showing an additive effect; when q<1, the actual combined effect is weaker than the theoretical expectation, showing an antagonistic effect; and when q>1, the actual combined effect exceeds the theoretical expectation, showing a synergic effect. Unless otherwise specified, single-use efficacy of A or B (denoted as EA and EB respectively) and the actual combined efficacy of A/B (denoted as EA+B) are both tumor inhibition rates.
In one experiment, the test animal was a BALB/c mouse, the modeling cells were breast cancer 4T1 cells, and the transplantation tumor was modeled at 1×10^6 cells/mouse under the skin of the animal's right axilla. […] The experimental groups were divided into 1 negative control group (group 0) and 13 study groups (groups 1-13). They were all injected intratumorally. […] Each group was administered once every 3 days for a total of 3 times, each time at an injection dose of 150 μl//mouse. During the administration, general state of the animals and the degree of necrosis of normal tissues around the tumor after the administration were observed. On the 5th day after the administration was ended, the animals were euthanized, and the tumor weight was measured after anatomy to the animals. The tumor inhibition rate was calculated from the negative control group of each administration mode.
In another experiment, the test animal was a BALB/c mouse, the modeling cells were breast cancer 4T1 cells, and the transplantation tumor was modeled at 1×10^6 cells/mouse under the skin of the animal's right axilla. […] Each group was administered by intratumoral injection once every 3 days for a total of 3 times, each time at an injection dose of 150 μl/mouse. On the 5th day after the administration was ended, the animals were euthanized, and the tumor weight was measured after anatomy to the animals. The tumor inhibition rate was calculated from the negative control group.
In another experiment, the test animal was BALB/c mice, the modeling cells were breast cancer 4T1 cells, and the transplantation tumor was modeled at 1×10^6 cells/mouse under the skin of the animal's right axilla. […] Each group was administered by intratumoral injection once every 3 days for a total of 3 times, each time at an injection dose of 150 μl/mouse. On the 5th day after the administration was ended, the animals were euthanized, and the tumor weight was measured after anatomy to the animals. The tumor inhibition rate was calculated from the negative control group.
In another experiment, the test animal was a BALB/c mouse, the modeling cells were breast cancer 4T1 cells, and the transplantation tumor under the skin of the animal's right axilla was modeled at 1×10^6 cells/mouse.
With `CC(=O)O` [10% acetic acid, acetic acid], the “Intratumoral injection Tumor inhibition rate” value was determined as 53% and the “Intratumoral injection Tumor weight” value came out at 0.60 ± 0.21 g.

Still in this assay, the particulars now being: Table 12; avg tumor volume 317 mm^3; intratumoral 150 μl/mouse every 3 days x3; 5th day.
For the compound `[Na+].[OH-]` [0.5% NaOH, sodium hydroxide], the Tumor inhibition rate came to 31% and the “Tumor weight (x ± s)” value came to 1.54 g.

On to `N=C(N)NCCC[C@H](N)C(=O)O` [4% arginine, L-arginine], for which the Tumor inhibition rate was found to be 2% and the “Tumor weight (x ± s)” value is reported as 2.31 g.

In the case of `[Na+].[OH-]` [7% NaOH, sodium hydroxide], the Tumor inhibition rate is on record as 75% and the “Tumor weight (x ± s)” value amounted to 0.59 g.

Staying with this assay, now noted: Table 14; avg tumor volume 325 mm^3; intratumoral 150 μl/mouse every 3 days x3; 5th day.
`[Cl-].[K+]` [2% KCl, potassium chloride]: the Tumor inhibition rate was found to be 11% and the “Tumor weight (x ± s)” value turned out to be 2.19 ± 0.31 g.

The assay is the same for the next values; noted with them: Table 17; avg tumor volume 317 mm^3; intratumoral 150 μl/mouse every 3 days x3; fifth day.
For the compound `N=C(N)NCCC[C@H](N)C(=O)O` [2.5% arginine, L-arginine], the Tumor inhibition rate is on record as 5% and the Tumor weight was 1.48 ± 0.32 g.

`N=C(N)NCCC[C@H](N)C(=O)O` [5% arginine, L-arginine] showed a Tumor inhibition rate of 10% and a Tumor weight of 1.40 ± 0.26 g.

The record behind these values is patent US20220151935A1, “USE OF AMINO ACID BASED NUTRIENTS AND PHARMACEUTICAL COMPOSITION CONTAINING THE SAME” (priority 2018, published 2022).
